Where two headings read alike, the source gives them in different places.
Key:
[1] = biological target: T1, interaction between GMPPNP-bound recombinant K-Ras4B G12C mutant protein and cRAF RAS-binding domain (cRAF-RBD) (Homo sapiens, UniProt P01116, G12C); assay: Inhibitory activity on interaction between KRAS G12C and cRAF (Alpha technology); conditions: Table 2-1
T1 construct: His-tag (N)
How it was run: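 Alpha signal measured 1.5 h after adding cRAF-RBD (aa 50-132) and detection reagents to GMPPNP-bound KRAS G12C (aa 1-169) pretreated 1 h at 25° C with compound (pH 7.5 buffer). 0% inhibition = DMSO, 100% = GDP-loaded KRAS; IC50 by curve fit.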

MIA PaCa-2 cells = assay: Growth inhibition activity on KRAS-G12C mutant cell line (CellTiter-Glo 3D); format: cell-based, human; conditions: Homo sapiens, MIA PaCa-2, 72 h, MIA PaCa-2, 3-day culture with compound; Table 3-1
How it was run: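 IC50 (nM) derived from inhibition of luminescence (CellTiter-Glo 3D) relative to compound-free wells. Cells were seeded in U-bottom plates, grown 1 day, then exposed to compound for 3 days at 37 °C with 0.2% final DMSO.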

[2] = IC50, GMPPNP-bound KRAS G12C incubated with compound 25° C. 1 hour
[3] = GMPPNP-bound KRAS G12C incubated with compound 25° C. 1 hour, read-out: IC50

T1 sequence (P01116 with tags, fused parts or gaps isoform P01116-2 G12C): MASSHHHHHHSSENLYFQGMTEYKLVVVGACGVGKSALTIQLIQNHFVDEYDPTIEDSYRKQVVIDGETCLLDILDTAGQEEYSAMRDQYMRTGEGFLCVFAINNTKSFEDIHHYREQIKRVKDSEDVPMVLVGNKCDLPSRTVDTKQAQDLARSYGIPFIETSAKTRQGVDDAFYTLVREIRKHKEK

SMILES | IC50 [1, 2] [nM] | IC50 (MIA PaCa-2 cells) [nM] | IC50 [1, 3] [nM]
Cc1nc2c3c(c(C(F)(F)F)cc2n1C)-c1cccc2c(C(=O)c4cc(F)c(NC(=O)/C=C/CNC(C)(C)CF)c(F)c4)cn(c12)CCN3C [Example 82, (E)-N-(2,6-difluoro-4-(8,9,11-trimethyl-6-(trifluoromethyl)-8,11,12,13-tetrahydro-imidazo[4″,5″:5′,6′]benzo-[1′,2′:5,6][1,4]diazocino-[7,8,1-hi]indole-2-carbon-yl)phenyl)-4-((1-fluoro-2-methylpropan-2-yl)-amino)but-2-enamide] | 24.9 | 29.9 | 
Cc1cc2c(nc(C)n2C)c2c1-c1cccc3c(C(=O)c4cc(F)c(NC(=O)/C=C/CNC5CC6(COC6)C5)c(F)c4)cn(c13)CCN2C [Example 84, (E)-4-((2-oxaspiro[3.3]-heptan-6-yl)amino)-N-(2,6-difluoro-4-(6,8,9,11-tetramethyl-8,11,12,13-tetrahydroimidazo[4″,5″: 5′,6′]benzo[1′,2′:5,6]-[1,4]diazocino[7,8,1-hi]-indole-2-carbonyl)phenyl) but-2-enamide] | 39.9 | 49.6 | 
CC(=O)C(C)(C)NC/C=C/C(=O)Nc1c(F)cc(C(=O)c2cn3c4c(cccc24)-c2c(C)cc4c(nc(C)n4C)c2N(C)CC3)cc1F [Example 85, (E)-N-(2,6-difluoro-4-(6,8,9,11-tetramethyl-8,11,12,13-tetrahydro-imidazo[4″,5″:5′,6′]benzo-[1′,2′:5,6][1,4]diazocino-[7,8,1-hi]indole-2-carbon-yl)phenyl)-4-(2-methyl-3-oxobutan-2-ylamino)but-2-enamide] | 61 | 30.9 | 
CC(=O)N1CCC(C)(NC/C=C/C(=O)Nc2c(F)cc(C(=O)c3cc4c5c(cccn35)-c3c(C(F)(F)F)cc5c(ncn5C)c3N(C)CC4)cc2F)CC1 [Example 86, (E)-4-((1-acetyl-4-methyl-piperidin-4-yl)amino)-N-(4-(9,12-dimethyl-7-(trifluoromethyl)-9,12,13,14-tetrahydro-imidazo[4″,5″:5′,6′]benzo-[1′,2′:2,3]azocino[4,5,6-hi]indolizine-2-carbonyl)-2,6-difluorophenyl)but-2-enamide] |  | 6.11 | 22.3
CO[C@H]1CC[C@H](NC/C=C/C(=O)Nc2ccc(C(=O)c3cn4c5c(cccc35)-c3c(C(F)(F)F)cc5c(nc(C)n5C)c3N(C)CC4)nc2)CC1 [Example 88, (E)-4-(((1r,4r)-4-methoxy-cyclohexyl)amino)-N-(6-(8,9,11-trimethyl-6-(trifluoromethyl)-8,11,12,13-tetrahydro-imidazo[4″,5″:5′,6′]benzo-[1′,2′:5,6][1,4]diazocino-[7,8,1-hi]indole-2-carbon-yl)pyridin-3-yl)but-2-enamide] |  | 6.92 | 39.5
Cc1nc2c3c(c(C(F)(F)F)cc2n1C)-c1cccc2c(C(=O)c4cc(F)c(NC(=O)/C=C/CNC5(C)COC5)c(F)c4)cn(c12)CCO3 [Example 91] | 27.2 | 8.68 | 
COc1cc2c(nc(C)n2C)c2c1-c1cccn3c(C(=O)c4cc(F)c(NC(=O)/C=C/CNC(C)(C)CF)c(F)c4)cc(c13)CCN2C [Example 93] |  | 51.6 | 33.6
Cc1cc2c(nc(C)n2C)c2c1-c1cccc3c(C(=O)c4cc(F)c(NC(=O)/C=C/CNCC(=O)N(C)C)c(F)c4)cn(c13)CCN2C [Example 94, (E)-N-(2,6-difluoro-4-(6,8,9,11-tetramethyl-8,11,12,13-tetrahydro-imidazo[4″,5″:5′,6′]-benzo[1′,2′:5,6][1,4]-diazocino[7,8,1-hi]indole-2-carbonyl)phenyl)-4-((2-(dimethylamino)-2-oxoethyl)amino)but-2-enamide] | 71.6 | 73 | 
CN1CCc2cc(C(=O)c3cc(F)c(NC(=O)/C=C/CNCCO)c(F)c3)n3cccc(c23)-c2c(C(F)(F)F)cc3c(ncn3C)c21 [Example 96, (E)-N-(4-(9,12-dimethyl-7-(trifluoromethyl)-9,12,13,14-tetrahydro-imidazo[4″,5″:5′,6′]benzo-[1′,2′:2,3]azocino[4,5,6-hi]indolizine-2-carbonyl)-2,6-difluorophenyl)-4-((2-hydroxyethyl)amino)but-2-enamide] |  | 14.5 | 30.6
CN1CCc2cc(C(=O)c3cc(F)c(NC(=O)/C=C/CN[C@@H]4CCCC[C@H]4O)c(F)c3)n3cccc(c23)-c2c(C(F)(F)F)cc3c(ncn3C)c21 [Example 100, (E)-N-(4-(9,12-dimethyl-7-(trifluoromethyl)-9,12,13,14-tetrahydro-imidazo[4″,5″:5′,6′]benzo-[1′,2′:2,3]azocino[4,5,6-hi]indolizine-2-carbonyl)-2,6-difluorophenyl)-4-(((1R,2R)-2-hydroxy-cyclohexyl)amino)but-2-enamide] |  | 23.4 | 34.5
CN1CCc2cc(C(=O)c3cc(F)c(NC(=O)/C=C/CN[C@H]4CCCC[C@@H]4O)c(F)c3)n3cccc(c23)-c2c(C(F)(F)F)cc3c(ncn3C)c21 [Example 101] |  | 26.5 | 27.4
CCN(CC)[C@H]1CC[C@H](NC/C=C/C(=O)Nc2c(F)cc(C(=O)c3cn4c5c(cccc35)-c3c(C(F)(F)F)cc5c(nc(C)n5C)c3N(C)CC4)cc2F)CC1 [Example 102, (E)-4-(((1r,4r)-4-(diethyl-amino)cyclohexyl)amino)-N-(2,6-difluoro-4-(8,9,11-trimethyl-6-(trifluoro-methyl)-8,11,12,13-tetra-hydroimidazo[4″,5″:5′,6′]-benzo[1′,2′:5,6][1,4]-diazocino[7,8,1-hi]indole-2-carbonyl)phenyl)but-2-enamide] | 11.2 | 10.5 | 
Cc1cc2c(nc(C)n2C)c2c1-c1cccc3c(C(=O)c4cc(F)c(NC(=O)/C=C/CNC(C)(C)C(=O)N(C)C)c(F)c4)cn(c13)CCN2C [Example 103] | 99.2 | 303 | 
COc1cc2c(nc(C)n2C)c2c1-c1cccn3c(C(=O)c4cc(F)c(NC(=O)/C=C/CNC5CCCCC5)c(F)c4)cc(c13)CCN2C [Example 104, (E)-4-(cyclohexylamino)-N-(2,6-difluoro-4-(7-methoxy-9,10,12-trimeth-yl-9,12,13,14-tetrahydro-imidazo[4″,5″:5′,6′]benzo-[1′,2′:2,3]azocino[4,5,6-hi]indolizine-2-carbon-yl)phenyl)but-2-enamide] |  | 15.5 | 41.2
CC(=O)CC(C)(C)NC/C=C/C(=O)Nc1c(F)cc(C(=O)c2cn3c4c(cccc24)-c2c(C)cc4c(nc(C)n4C)c2N(C)CC3)cc1F [Example 108] | 54.2 | 332 | 
CN1CCc2cc(C(=O)c3cc(F)c(NC(=O)/C=C/CNC4(CO)CCCC4)c(F)c3)n3cccc(c23)-c2c(C(F)(F)F)cc3c(ncn3C)c21 [Example 109, (E)-N-(4-(9,12-dimethyl-7-(trifluoromethyl)-9,12,13,14-tetrahydro-imidazo[4″,5″:5′,6′]benzo-[1′,2′:2,3]azocino[4,5,6-hi]indolizine-2-carbonyl)-2,6-difluorophenyl)-4-((1-(hydroxymethyl)cyclo-pentyl)amino)but-2-enamide] |  | 19.5 | 24.8
CO[C@H]1CC[C@H](NC/C=C/C(=O)Nc2c(F)cc(C(=O)c3cc4c5c(cccn35)-c3c(C)cc5c(ncn5C)c3N(C)CC4)cc2F)CC1 [Example 110, (E)-N-(2,6-difluoro-4-(7,9,12-trimethyl-9,12,13,14-tetrahydro-imidazo[4″,5″:5′,6′]benzo-[1′,2′:2,3]azocino[4,5,6-hi]indolizine-2-carbon-yl)phenyl)-4-(((1r,4r)-4-methoxycyclohexyl)-amino)but-2-enamide] |  | 55.8 | 35.7
CCNC/C=C/C(=O)Nc1c(F)cc(C(=O)c2cc3c4c(cccn24)-c2c(C(F)(F)F)cc4c(ncn4C)c2N(C)CC3)cc1F [Example 111, (E)-N-(4-(9,12-dimethyl-7-(trifluoromethyl)-9,12,13,14-tetrahydro-imidazo[4″,5″:5′,6′]benzo-[1′,2′:2,3]azocino[4,5,6-hi]indolizine-2-carbonyl)-2,6-difluorophenyl)-4-(ethylamino)but-2-enamide] |  | 8.95 | 31.3
CN1CCc2cc(C(=O)c3cc(F)c(NC(=O)/C=C/CNCC(C)(C)O)c(F)c3)n3cccc(c23)-c2c(C(F)(F)F)cc3c(ncn3C)c21 [Example 112, (E)-N-(4-(9,12-dimethyl-7-(trifluoromethyl)-9,12,13,14-tetrahydro-imidazo[4″,5″:5′,6′]benzo-[1′,2′:2,3]azocino[4,5,6-hi]indolizine-2-carbonyl)-2,6-difluorophenyl)-4-((2-hydroxy-2-methylpropyl)-amino)but-2-enamide] |  | 10.1 | 29.2
CN1CCc2cc(C(=O)c3cc(F)c(NC(=O)/C=C/CNCC(C)(C)CO)c(F)c3)n3cccc(c23)-c2c(C(F)(F)F)cc3c(ncn3C)c21 [Example 113, (E)-N-(4-(9,12-dimethyl-7-(trifluoromethyl)-9,12,13,14-tetrahydro-imidazo[4″,5″:5′,6′]benzo-[1′,2′:2,3]azocino[4,5,6-hi]indolizine-2-carbonyl)-2,6-difluorophenyl)-4-((3-hydroxy-2,2-dimethyl-propyl)amino)but-2-enamide] |  | 10.6 | 29.6
